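A five-concentration, 48-hour dose response in 96-well plates underlies each endpoint, interpolated linearly between surrounding concentrations. Definition used: TGI = concentration required for complete inhibition of growth.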
Experiments:
Assay in all cases: DTP human tumour cell line panel, 48 h
[1] = system: RXF 393 renal
[2] = system: NCI-H522 lung
[3] = system: HS 578T breast
[4] = system: K-562 leukemia
[5] = system: OVCAR-5 ovarian
[6] = system: ACHN renal
[7] = system: NCI/ADR-RES ovarian
[8] = system: MDA-MB-435
[9] = system: KM12 colon
[10] = system: HOP-62 NSCLC
[11] = system: SN12C renal
[12] = system: OVCAR-8 ovarian
[13] = system: MALME-3M melanoma
[14] = system: TK-10 renal
[15] = system: UACC-62 melanoma
[16] = system: A498 renal
[17] = system: U251 CNS
[18] = system: LOX IMVI melanoma
[19] = system: RPMI-8226 leukemia
[20] = system: SK-OV-3 ovarian
[21] = system: HL-60(TB) leukemia
[22] = system: 786-0 renal
[23] = system: SNB-75 CNS
[24] = system: M14 melanoma
[25] = system: OVCAR-3 ovarian
[26] = system: SNB-19 CNS
[27] = system: EKVX NSCLC
[28] = system: MCF7 breast
[29] = system: T-47D breast
[30] = system: UO-31 renal
[31] = system: SR leukemia
[32] = system: HOP-92 NSCLC
[33] = system: SF-539 CNS
[34] = system: BT-549 breast
[35] = system: OVCAR-4 ovarian
[36] = system: COLO 205 colon
[37] = system: SF-268 CNS
[38] = system: NCI-H23 lung
[39] = system: PC-3 prostate
[40] = system: NCI-H460 lung
[41] = system: HCT-116 colon
[42] = system: SK-MEL-2 melanoma
[43] = system: A549 NSCLC
[44] = system: IGROV1 ovarian
[45] = system: MDA-N
[46] = system: HCC-2998 colon
[47] = system: SK-MEL-28 melanoma
[48] = system: HT29 colon
[49] = system: DU-145 prostate
[50] = system: NCI-H226 lung
[51] = system: CCRF-CEM leukemia
[52] = system: MDA-MB-231 breast
[53] = system: UACC-257 melanoma
[54] = system: HCT-15 colon
[55] = system: MOLT-4 leukemia
[56] = system: CAKI-1 renal
[57] = system: SF-295 CNS
[58] = system: SW-620 colon
[59] = system: SK-MEL-5 melanoma

SMILES: CCCCCOc1ccc(Nc2c(O)c3c(c(O)c2Cl)C(=O)C=CC3=O)cc1
- TGI [1]: > 10 µM
- TGI [2]: 5.39 µM
- TGI [3]: 7.39 µM
- TGI [4]: > 9.65 µM
- TGI [5]: > 10 µM
- TGI [6]: > 10 µM
- TGI [7]: > 10 µM
- TGI [8]: 5.53 µM
- TGI [9]: > 10 µM
- TGI [10]: > 10 µM
- TGI [11]: > 10 µM
- TGI [12]: > 5.87 µM
- TGI [13]: > 6.38 µM
- TGI [14]: > 10 µM
- TGI [15]: > 10 µM
- TGI [16]: > 10 µM
- TGI [17]: > 10 µM
- TGI [18]: 3.72 µM
- TGI [19]: 7.76 µM
- TGI [20]: > 10 µM
- TGI [21]: 3.79 µM
- TGI [22]: > 10 µM
- TGI [23]: > 10 µM
- TGI [24]: > 10 µM
- TGI [25]: > 6.54 µM
- TGI [26]: > 10 µM
- TGI [27]: > 10 µM
- TGI [28]: > 10 µM
- TGI [29]: > 9.64 µM
- TGI [30]: > 9.67 µM
- TGI [31]: 6.99 µM
- TGI [32]: > 9.51 µM
- TGI [33]: > 10 µM
- TGI [34]: > 6.94 µM
- TGI [35]: 9.97 µM
- TGI [36]: > 8.02 µM
- TGI [37]: > 10 µM
- TGI [38]: > 6.51 µM
- TGI [39]: > 10 µM
- TGI [40]: > 10 µM
- TGI [41]: > 10 µM
- TGI [42]: > 10 µM
- TGI [43]: > 10 µM
- TGI [44]: > 10 µM
- TGI [45]: > 9.3 µM
- TGI [46]: > 7.84 µM
- TGI [47]: 8.66 µM
- TGI [48]: > 10 µM
- TGI [49]: > 10 µM
- TGI [50]: > 10 µM
- TGI [51]: > 10 µM
- TGI [52]: > 8.25 µM
- TGI [53]: > 10 µM
- TGI [54]: 3.93 µM
- TGI [55]: > 10 µM
- TGI [56]: > 10 µM
- TGI [57]: > 10 µM
- TGI [58]: > 10 µM
- TGI [59]: > 10 µM

SMILES: COc1ccc2nc3n[nH]c(N)c3nc2c1
- TGI [1]: 5.91 µM
- TGI [2]: 27.3 µM
- TGI [3]: 23.8 µM
- TGI [4]: > 100 µM
- TGI [5]: > 87.2 µM
- TGI [6]: > 23.7 µM
- TGI [7]: 33.8 µM
- TGI [8]: 72.3 µM
- TGI [9]: > 93 µM
- TGI [10]: > 76.5 µM
- TGI [11]: > 69.1 µM
- TGI [12]: 32.5 µM
- TGI [13]: 69.6 µM
- TGI [14]: > 75.7 µM
- TGI [15]: 19.8 µM
- TGI [16]: > 62.3 µM
- TGI [17]: > 56.3 µM
- TGI [18]: 20.4 µM
- TGI [19]: 19 µM
- TGI [20]: > 64.9 µM
- TGI [21]: 4.48 µM
- TGI [22]: > 65.9 µM
- TGI [23]: 21.7 µM
- TGI [24]: 27.6 µM
- TGI [25]: 38.3 µM
- TGI [26]: > 100 µM
- TGI [27]: 45.6 µM
- TGI [28]: > 26.7 µM
- TGI [29]: 46.5 µM
- TGI [30]: 55 µM
- TGI [31]: > 78 µM
- TGI [32]: 48.6 µM
- TGI [33]: 12 µM
- TGI [34]: 62.9 µM
- TGI [35]: > 87.3 µM
- TGI [36]: 18.9 µM
- TGI [37]: 23.8 µM
- TGI [38]: 15.5 µM
- TGI [39]: 36.9 µM
- TGI [40]: > 84.2 µM
- TGI [41]: > 32.8 µM
- TGI [42]: 17.5 µM
- TGI [43]: > 26.5 µM
- TGI [44]: 17.1 µM
- TGI [45]: 44.4 µM
- TGI [46]: > 74 µM
- TGI [47]: 42.2 µM
- TGI [48]: 36.9 µM
- TGI [49]: > 49.2 µM
- TGI [50]: 24.8 µM
- TGI [51]: > 25.7 µM
- TGI [52]: 64.4 µM
- TGI [53]: 90.4 µM
- TGI [54]: > 93.7 µM
- TGI [55]: > 100 µM
- TGI [56]: > 90.6 µM
- TGI [57]: > 76.7 µM
- TGI [58]: 45.9 µM
- TGI [59]: > 29.1 µM

SMILES: CC(=O)O[C@@H]1C(C2CCCCC2)C=[N+]([O-])O[C@@H]1OC1CCCC1(c1ccccc1)c1ccccc1 (stereo partly specified)
- TGI [1]: 6.82 µM
- TGI [2]: 4.1 µM
- TGI [3]: 27.8 µM
- TGI [4]: > 40.2 µM
- TGI [5]: 30.7 µM
- TGI [6]: 4.84 µM
- TGI [7]: 29.3 µM
- TGI [8]: 9.04 µM
- TGI [9]: 22.9 µM
- TGI [10]: 29.3 µM
- TGI [11]: 21.2 µM
- TGI [12]: 4.22 µM
- TGI [13]: 9.05 µM
- TGI [14]: 28.3 µM
- TGI [15]: 19.4 µM
- TGI [16]: 17.1 µM
- TGI [17]: 26.1 µM
- TGI [18]: 3.48 µM
- TGI [19]: 7.91 µM
- TGI [20]: 29.1 µM
- TGI [21]: 3.4 µM
- TGI [22]: 16.8 µM
- TGI [23]: 17.6 µM
- TGI [24]: 12.1 µM
- TGI [25]: 10.3 µM
- TGI [26]: 30.5 µM
- TGI [27]: 30.2 µM
- TGI [28]: 12 µM
- TGI [29]: 10.1 µM
- TGI [30]: 20.4 µM
- TGI [31]: > 22.8 µM
- TGI [32]: 23.1 µM
- TGI [33]: 14.2 µM
- TGI [34]: 24.8 µM
- TGI [35]: 21.1 µM
- TGI [36]: 17.7 µM
- TGI [37]: 17.6 µM
- TGI [38]: 26.2 µM
- TGI [39]: 23 µM
- TGI [40]: 30 µM
- TGI [41]: 15.5 µM
- TGI [42]: 27.8 µM
- TGI [43]: 28.5 µM
- TGI [44]: 8.83 µM
- TGI [45]: 12.2 µM
- TGI [46]: 26 µM
- TGI [47]: 5.84 µM
- TGI [48]: 5.65 µM
- TGI [49]: 25.3 µM
- TGI [50]: 32.1 µM
- TGI [51]: 7.49 µM
- TGI [52]: 27.1 µM
- TGI [53]: 36.5 µM
- TGI [54]: 4.21 µM
- TGI [55]: > 27.6 µM
- TGI [56]: 10.4 µM
- TGI [57]: 27.4 µM
- TGI [58]: 4.63 µM
- TGI [59]: 28 µM

SMILES: C=C1C(=O)O[C@@H]2C[C@@H]3[C@]4(CC[C@]5(C)[C@@H]([C@H](C)CC/C=C(\C)C=O)CC[C@@]35C)C[C@]4(CCC(=O)OC)[C@H]12
- TGI [1]: 3.56 µM
- TGI [2]: 8.91 µM
- TGI [3]: 6.77 µM
- TGI [4]: 2.67 µM
- TGI [5]: 3.96 µM
- TGI [6]: 3.89 µM
- TGI [7]: 7.99 µM
- TGI [8]: 3.16 µM
- TGI [9]: 3.89 µM
- TGI [10]: 4.21 µM
- TGI [11]: 3.85 µM
- TGI [12]: 2.15 µM
- TGI [13]: 3.05 µM
- TGI [14]: 3.99 µM
- TGI [15]: 3.06 µM
- TGI [16]: 5.33 µM
- TGI [17]: 2.86 µM
- TGI [18]: 2.61 µM
- TGI [19]: 1.22 µM
- TGI [20]: 6.72 µM
- TGI [21]: 1.29 µM
- TGI [22]: 3.23 µM
- TGI [23]: 4.51 µM
- TGI [24]: 2.91 µM
- TGI [25]: 3.02 µM
- TGI [26]: 3.9 µM
- TGI [27]: 7.55 µM
- TGI [28]: 2.9 µM
- TGI [29]: 4.93 µM
- TGI [30]: 3.53 µM
- TGI [31]: 2.32 µM
- TGI [32]: 3.88 µM
- TGI [33]: 4.22 µM
- TGI [34]: 5.01 µM
- TGI [35]: 3.62 µM
- TGI [36]: 5.64 µM
- TGI [37]: 2.73 µM
- TGI [38]: 3.77 µM
- TGI [39]: 4.48 µM
- TGI [40]: 9.13 µM
- TGI [41]: 2.03 µM
- TGI [42]: 3.43 µM
- TGI [43]: 13.9 µM
- TGI [44]: 4.63 µM
- TGI [45]: 3.42 µM
- TGI [46]: 4.1 µM
- TGI [47]: 3.99 µM
- TGI [48]: 11 µM
- TGI [49]: 3.31 µM
- TGI [50]: 10.8 µM
- TGI [51]: 0.617 µM
- TGI [52]: 3.66 µM
- TGI [53]: 1.13 µM
- TGI [54]: 3.71 µM
- TGI [55]: 2.94 µM
- TGI [56]: 6.7 µM
- TGI [57]: 4.54 µM
- TGI [58]: 4.11 µM
- TGI [59]: 2.3 µM
